Laboratory results from article PMC12062745, “The immunostimulatory activity of Epimedium flavonoids involves toll-like receptor 7/8” (Frontiers in Pharmacology, 2025).

Legend:
Experiment in all cases: SPR (Biacore S200)
Assay type in all cases: binding
[1] = target: T1, recombinant mouse TLR8 (Mus musculus, UniProt P58682); conditions: 80 μM compound
T1 construct: recombinant from Escherichia coli supernatant
T1 sequence (P58682 24-1032): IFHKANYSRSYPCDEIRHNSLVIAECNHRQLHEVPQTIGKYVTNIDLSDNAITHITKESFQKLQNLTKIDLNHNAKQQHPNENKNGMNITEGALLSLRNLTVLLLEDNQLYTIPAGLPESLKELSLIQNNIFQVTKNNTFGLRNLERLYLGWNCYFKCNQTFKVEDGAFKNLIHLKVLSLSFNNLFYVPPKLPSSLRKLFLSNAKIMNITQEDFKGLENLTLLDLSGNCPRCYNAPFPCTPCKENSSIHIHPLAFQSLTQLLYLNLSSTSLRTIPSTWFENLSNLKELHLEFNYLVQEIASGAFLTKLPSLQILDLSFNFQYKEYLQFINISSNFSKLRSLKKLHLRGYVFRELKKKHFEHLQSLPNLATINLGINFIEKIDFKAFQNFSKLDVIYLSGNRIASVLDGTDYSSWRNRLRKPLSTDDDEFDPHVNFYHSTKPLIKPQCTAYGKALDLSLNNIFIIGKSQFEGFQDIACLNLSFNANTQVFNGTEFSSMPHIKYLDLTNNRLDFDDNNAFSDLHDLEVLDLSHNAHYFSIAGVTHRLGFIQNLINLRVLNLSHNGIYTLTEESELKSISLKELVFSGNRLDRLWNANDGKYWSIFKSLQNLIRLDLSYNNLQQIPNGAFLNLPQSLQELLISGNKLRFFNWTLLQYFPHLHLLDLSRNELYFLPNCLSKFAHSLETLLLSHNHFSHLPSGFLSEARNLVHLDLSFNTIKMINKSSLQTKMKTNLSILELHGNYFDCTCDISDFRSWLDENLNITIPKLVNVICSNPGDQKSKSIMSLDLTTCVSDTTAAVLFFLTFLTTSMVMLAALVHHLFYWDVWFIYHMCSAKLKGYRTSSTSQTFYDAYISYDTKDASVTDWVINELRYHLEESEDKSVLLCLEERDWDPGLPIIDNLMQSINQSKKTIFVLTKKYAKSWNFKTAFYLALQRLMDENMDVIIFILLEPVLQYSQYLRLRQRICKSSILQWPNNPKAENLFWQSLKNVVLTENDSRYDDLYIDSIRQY

[2] = target: T2, recombinant mouse TLR7 (Mus musculus, UniProt P58681); conditions: 80 μM compound
T2 construct: recombinant from Escherichia coli supernatant
T2 sequence (P58681 27-1050): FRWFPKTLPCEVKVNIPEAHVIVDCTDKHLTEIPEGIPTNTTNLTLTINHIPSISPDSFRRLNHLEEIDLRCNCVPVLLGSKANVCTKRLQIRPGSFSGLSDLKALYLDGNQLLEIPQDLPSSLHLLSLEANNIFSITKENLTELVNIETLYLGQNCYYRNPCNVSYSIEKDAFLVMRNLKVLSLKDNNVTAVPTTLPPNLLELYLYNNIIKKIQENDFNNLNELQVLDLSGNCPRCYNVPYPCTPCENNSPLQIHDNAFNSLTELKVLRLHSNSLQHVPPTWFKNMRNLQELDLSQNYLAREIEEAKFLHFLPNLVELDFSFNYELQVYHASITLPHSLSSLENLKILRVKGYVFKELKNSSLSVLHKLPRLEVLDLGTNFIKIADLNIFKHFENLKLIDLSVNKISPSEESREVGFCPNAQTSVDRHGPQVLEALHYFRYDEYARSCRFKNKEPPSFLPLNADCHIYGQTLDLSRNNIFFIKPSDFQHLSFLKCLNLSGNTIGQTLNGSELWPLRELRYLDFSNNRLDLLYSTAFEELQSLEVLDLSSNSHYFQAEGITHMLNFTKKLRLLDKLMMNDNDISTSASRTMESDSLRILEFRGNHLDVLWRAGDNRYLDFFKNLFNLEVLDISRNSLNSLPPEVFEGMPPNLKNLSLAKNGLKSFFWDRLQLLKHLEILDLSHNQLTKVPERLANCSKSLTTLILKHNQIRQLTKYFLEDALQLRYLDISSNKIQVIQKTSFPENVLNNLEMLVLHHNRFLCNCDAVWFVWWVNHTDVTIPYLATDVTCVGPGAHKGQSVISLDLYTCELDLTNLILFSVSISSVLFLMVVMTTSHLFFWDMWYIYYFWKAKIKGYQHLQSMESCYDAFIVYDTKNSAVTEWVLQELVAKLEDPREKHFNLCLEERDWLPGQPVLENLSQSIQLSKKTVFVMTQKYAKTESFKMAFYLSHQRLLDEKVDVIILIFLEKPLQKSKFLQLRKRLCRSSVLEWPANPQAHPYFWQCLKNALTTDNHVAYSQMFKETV

[3] = target: T1, recombinant mouse TLR8; conditions: read-out: KD8

| SMILES | response value (RU) [1] [RU] | SPR (Biacore S200) [2] | Kd [3] [µM] |
| --- | --- | --- | --- |
| COc1ccc(-c2oc3c(CC=C(C)C)c(O[C@@H]4O[C@H](CO)[C@@H](O)[C@H](O)[C@H]4O)cc(O)c3c(=O)c2O)cc1 [icariin I] | 43 | – | – |
| COc1ccc(-c2oc3c(CC=C(C)C)c(O)cc(O)c3c(=O)c2O[C@@H]2O[C@@H](C)[C@H](O)[C@@H](O)[C@H]2O)cc1 [icariin II] | – | SPR analysis revealed that icariin II exhibited the highest binding response to TLR7 | 10.3 |
